{
  "source": "patent US20240000741A1",
  "about": "“ALL-TRANS RETINOIC ACID ENHANCES RADIOTHERAPY AND OVERCOMES IMMUNE SUPPRESSION FOR CANCER THERAPY” (The University of Chicago, priority 2022, published 2024)",
  "assay_type_in_all_cases": "in vivo, mouse",
  "key": {"CT26 tumor": {"system": "CT26 tumor", "test": "ATRA-sensitized fractionated radiotherapy in CT26 tumor bearing BALB/c mice", "details": "6 fractions", "description": "2×10^6 CT26 cells were subcutaneously injected into the right flanks of BALB/c mice. When the tumors reached 100-120 mm^3 in volume, ATRA in corn oil (400 μg/each) was daily administrated via oral gavage. After administration, mice were anaesthetized with 2% (v/v) isoflurane and the tumors were irradiated daily with X-ray at a dose of 1 Gy/fraction (225 kVp, 13 mA, 0.3 mm-Cu filter) for a total of 6 fractions on six consecutive days. Oil (equal volume/each) was daily administrated with or without irradiation as a control. The tumor size was measured with a caliper every day and the tumor volume calculated as 0.5×length×width 2. All the mice were sacrificed when the tumors reached about 2000 mm^3."}, "[1]": {"system": "chemokines and cytokines in tumors", "test": "Multiplex cytokine/chemokine assay of tumor homogenates", "description": "Whole tumors were excised at indicated time point post treatment. Tumors were weighed and homogenized in PBS with the presence of protease inhibitor cocktails at a ratio of 1 ml per gram of tissue. 25 μl of supernatants were subjected to a bead-based cytokine and chemokine assay (a mouse inflammation panel and chemokine panel sold under the tradename LEGENDPLEX™ (BioLegend, San Diego, California, United States of America). The assays were analyzed using a LSRII flow cytometer and software sold under the tradename LEGENDPLEX™ (both from BioLegend, San Diego, California, United States of America). IFN-γ was measured using IFN-γ flex CBA set (BD Biosciences, Franklin Lakes, New Jersey, United States of America). TNF-α concentration was measured using ELISA kit from R&D Systems (MTA00B; Minneapolis, Minnesota, United States of America). For nitrite assay, equal weight of tumors were cut into pieces and cultured in DMEM medium for 2 hours. The production of NO in the supernatants was measured indirectly by measuring the concentration of nitrite by using the Griess reagent nitrite measurement kit (Cell Signaling Technology, Danvers, Massachusetts, United States of America; #13547).\nTo determine whether RA has direct cytotoxic and/or radiosensitizing effects on tumor cells, MC38 cells were cultured with RA (0 nM to 2000 nM) after IR (0 Gy to 15 Gy) for three days. […] Since both IR and RA regulate immune responses, studies were conducted to examine how the combination treatment changes the tumor immune environment. Using a multiplex assay, the level of chemokines and cytokines in tumors three days after treatment was determined."}, "CD11b+CD11c+ cells": {"system": "CD11b+CD11c+ cells", "test": "Quantitative real-time PCR of cells sorted from tumors", "description": "Total RNA from tumor and CD11c+ cells isolated from tumors with a kit sold under the tradename EASYSEP® Mouse CD11c positive selection kit II (STEMCELL Technologies, Vancouver, Canada) was extracted with a kit sold under the tradename QUICK-RNA® Miniprep Plus kit (R1058, Zymo Research, Irvine, California, United States of America). cDNA was synthesized with a High Capacity cDNA Reverse Transcription kit (4368814, Applied Biosystems, Waltham, Massachusetts, United States of America). Real-time PCR was performed with a kit containing fluorescent chemicals sold under the tradename SYBR™ (Molecular Probes, Sunnyvale, California, United States of America), i.e., the SYBR™ Green PCR Master Mix (4309155, Applied Biosystems, Waltham, Massachusetts, United States of America) and results were normalized to β-actin. Primers used: […]\nRelative gene expression was calculated using the 2^−ΔΔCT approach."}, "MC38 cells": {"system": "MC38 cells", "test": "Tumor re-challenge of cured mice with MC38 cells", "details": "mice cured by IR+RA, re-challenged with 5×10^6 MC38 cells", "description": "1×10^6 MC38, B16/F1, Renca or CT26 cells were subcutaneously implanted into flanks of mice. Tumors were irradiated using a Phillips IR250 orthovoltage X-ray generator (Phillips, Amsterdam, the Netherlands) operating at 250 kV 15 mA. Subcutaneous local tumors were irradiated by shielding bodies with a cylindrical lead cover with only flank tumors exposed for radiation. ATRA (400 μg/mice/day) was administered by oral gavage for 10 days. For the two-tumor model, 1×10^6 and 0.7×10^6 MC38 cells were subcutaneously implanted into the right and left flank of mice respectively. For the tumor re-challenge assay, both the cured mice and the naive mice were re-challenged with 5×10^6 MC38 or 1×10^6 LLC cells respectively. Tumors were measured along two diameters (length and width) and depth twice weekly and volumes were calculated as length×width×depth/2. For CD8 and CD4 T cell depletion experiments, 200 μg antibodies were injected i.p. on day 0, 2, 5 and 8 after radiation. Anti-CD11b antibody was injected i.p. every two days starting 1 day before radiation. Anti-PD-L1 antibody was administered i.p. on day 0, 3, and 7 after radiation at 200 μg/mouse. Anti-IFN-γ was administered i.p. at 500 μg/mouse every 7 days. Anti-NK1.1 antibody was administered via i.p. at 25 μg/mouse every 3 days for 3 doses. Anti-GM-CSF antibody was given by i.p. injection at 250 μg/mouse every 2 days. […]"}, "[2]": {"system": "MC38 syngeneic subcutaneous flank tumor", "test": "ATRA-sensitized fractionated radiotherapy in MC38 tumor bearing C57BL/6 mice", "details": "3 fractions", "description": "A MC38 syngeneic subcutaneous flank tumor-bearing mouse model was used for the evaluation of in vivo efficacy of ATRA-sensitized radiotherapy. 2×10^6 MC38 cells were injected into the right flank subcutaneous tissues of C57BL/6 background mice. […] After administration, mice were anaesthetized with 2% (v/v) isoflurane and the tumors were irradiated daily with X-ray at a dose of 2 Gy/fraction (225 kVp, 13 mA, 0.3 mm-Cu filter) for a total of 3 fractions. Oil (equal volume/each) was administrated daily with or without irradiation as controls. […] All the mice were sacrificed when the tumors reached about 2,000 mm^3."}, "[3]": {"details": "ATRA 400 μg/each oral gavage daily plus X-ray 1 Gy/fraction"}, "[4]": {"details": "IR+RA compared to other treatments"}, "[5]": {"details": "cells sorted from treated tumors"}, "[6]": {"details": "radiation and RA treatment compared to controls"}, "[7]": {"details": "ATRA 400 μg/each oral gavage daily plus X-ray 2 Gy/fraction"}},
  "data": [
    {"molecule": "CC1=C(/C=C/C(C)=C/C=C/C(C)=C/C(=O)O)C(C)(C)CCC1", "note": "[RA, all-trans retinoic acid]", "values": [
      {"measurement": "CT26 tumor growth", "setting": "CT26 tumor; [3]", "result": "regressed tumor growth"},
      {"measurement": "mice totally free of tumors", "setting": "CT26 tumor; [3]", "result": "2 out of 5"},
      {"measurement": "body weight", "setting": "CT26 tumor; ATRA plus X-ray 1 Gy/fraction", "result": "No weight loss"},
      {"measurement": "IFN-β level in tumors", "setting": "[1]; [4]", "result": "significantly elevated"},
      {"measurement": "IFN-γ level in tumors", "setting": "[1]; [4]", "result": "significantly elevated"},
      {"measurement": "IL-1 level in tumors", "setting": "[1]; [4]", "result": "significantly elevated"},
      {"measurement": "IL-6 level in tumors", "setting": "[1]; [4]", "result": "significantly elevated"},
      {"measurement": "increase of GM-CSF in whole tumor homogenates", "setting": "[1]; IR+RA, three days after treatment", "result": "more than 5 fold"},
      {"measurement": "CXCL9 level in tumors", "setting": "[1]; radiation and RA treatment", "result": "elevated"},
      {"measurement": "CXCL10 level in tumors", "setting": "[1]; radiation and RA treatment", "result": "elevated"},
      {"measurement": "mRNA level of TNF-α in sorted CD11b+CD11c+ cells", "setting": "CD11b+CD11c+ cells; [5]", "result": "increased"},
      {"measurement": "mRNA level of iNOS in sorted CD11b+CD11c+ cells", "setting": "CD11b+CD11c+ cells; [5]", "result": "increased"},
      {"measurement": "transcription of CXCL9 in CD11c+ cells", "setting": "CD11b+CD11c+ cells; [6]", "result": "increased significantly"},
      {"measurement": "transcription of CXCL10 in CD11c+ cells", "setting": "CD11b+CD11c+ cells; [6]", "result": "increased significantly"},
      {"measurement": "transcription of CXCL11 in CD11c+ cells", "setting": "CD11b+CD11c+ cells; [6]", "result": "increased significantly"},
      {"measurement": "tumor formation after re-challenge with MC38 cells", "setting": "MC38 cells", "result": "did not form tumors"},
      {"measurement": "MC38 tumor growth", "setting": "[2]; [7]", "result": "greatly regressed the growth of tumors"},
      {"measurement": "mice totally free of tumors", "setting": "[2]; [7]", "result": "5 out of 5"},
      {"measurement": "body weight", "setting": "[2]; ATRA and X-ray 2 Gy/fraction", "result": "did not lose body weight"},
      {"measurement": "time without tumor regrowth", "setting": "[2]; ATRA plus X-ray 2 Gy/fraction", "result": "≥ 30", "unit": "days"}
    ]}
  ]
}
